According to ChEMBL document CHEMBL4270619, “Mycobacterial siderophore: A review on chemistry and biology of siderophore and its potential as a target for tuberculosis” (Eur J Med Chem, 2018):

Assay: Stability in rat plasma
Format: ADME, cell-free
Conditions: not given

SMILES | Stability [%]
CCN(CC)CC.Nc1ncnc2c1ncn2[C@@H]1O[C@H](COS(=O)(=O)NC(=O)c2ccccc2O)[C@@H](O)[C@H]1O | 100

Assay: Stability in human plasma
Format: ADME, cell-free
Conditions: not given

SMILES | Stability [%]
CCN(CC)CC.Nc1ncnc2c1ncn2[C@@H]1O[C@H](COS(=O)(=O)NC(=O)c2ccccc2O)[C@@H](O)[C@H]1O | 100

Assay: Efflux ratio of apparent permeability from basolateral to apical over apical to basolateral side in human Caco2 cells
Format: ADME, cell-based
Conditions: caco-2

SMILES | Ratio
CC(=O)O[C@H]1[C@@H](F)[C@H](n2cnc3c(N)ncnc32)O[C@@H]1COS(=O)(=O)NC(=O)c1ccccc1O.CCN(CC)CC | 1.5 to 8.5
CCCCC(=O)O[C@H]1[C@@H](F)[C@H](n2cnc3c(N)ncnc32)O[C@@H]1COS(=O)(=O)NC(=O)c1ccccc1O.CCN(CC)CC | 1.5 to 8.5
CCC(=O)O[C@H]1[C@@H](F)[C@H](n2cnc3c(N)ncnc32)O[C@@H]1COS(=O)(=O)NC(=O)c1ccccc1O.CCN(CC)CC | 1.5 to 8.5
CCCCCCCCCCCC(=O)O[C@H]1[C@@H](F)[C@H](n2cnc3c(N)ncnc32)O[C@@H]1COS(=O)(=O)NC(=O)c1ccccc1O.CCN(CC)CC | 1.5 to 8.5
CCC(CC)C(=O)O[C@H]1[C@@H](F)[C@H](n2cnc3c(N)ncnc32)O[C@@H]1COS(=O)(=O)NC(=O)c1ccccc1O.CCN(CC)CC | 1.5 to 8.5
CCCCCCCC(=O)O[C@H]1[C@@H](F)[C@H](n2cnc3c(N)ncnc32)O[C@@H]1COS(=O)(=O)NC(=O)c1ccccc1O.CCN(CC)CC | 1.5 to 8.5
CCCC(=O)O[C@H]1[C@@H](F)[C@H](n2cnc3c(N)ncnc32)O[C@@H]1COS(=O)(=O)NC(=O)c1ccccc1O.CCN(CC)CC | 1.5 to 8.5
CC(C)C(=O)O[C@H]1[C@@H](F)[C@H](n2cnc3c(N)ncnc32)O[C@@H]1COS(=O)(=O)NC(=O)c1ccccc1O.CCN(CC)CC | 1.5 to 8.5
